Reference: US20050137242A1, “Betamimetics having a long-lasting activity, processes for preparing them, and their use as medicaments” (Boehringer Ingelheim Pharma GmbH & Co. KG, priority 2000, published 2005)
Where a name gives a salt, the structure may show the parent alone.

| melting point [°C] | SMILES |
| --- | --- |
| 189 to 190 | CCCCOc1ccc(CC(C)(C)NCC(O)c2ccc(O)c3c2OCC(=O)N3)cc1 (stereo not shown) (as salt: methanesulfonate) [Example 2, 1-[2H-5-hydroxy-3-oxo-4H-1,4-benzoxazin-8-yl]-2-[3-(4-n-butyloxyphenyl)-2-methyl-2-propylamino]ethanol] |
| 175 to 179 | COc1ccc(-c2ncn(CCC(C)(C)NCC(O)c3ccc(O)c4c3OCC(=O)N4)n2)cc1 (stereo not shown) (as salt: hydrochloride) [Example 5, 1-[2H-5-hydroxy-3-oxo-4H-1,4-benzoxazin-8-yl]-2-{4-[3-(4-methoxyphenyl)-1,2,4-triazol-3-yl]-2-methyl-2-butylamino}ethanol] |
| 154 to 155 | COc1ccc(CNc2cc(C(O)CNC(C)(C)CCn3cnc4ccccc43)ccc2O)cc1 (stereo not shown) (as salt: acetate) [Example 3, 1-[3-(4-methoxybenzylamino)-4-hydroxyphenyl]-2-[4-(1-benzimidazolyl)-2-methyl-2-butylamino]ethanol] |
| 202 to 205 | COc1ccc(CC(C)(C)NCC(O)c2ccc(O)c3c2OCC(=O)N3)cc1 (stereo not shown) (as salt: hydrochloride) [Example 4, 1-[2H-5-hydroxy-3-oxo-4H-1,4-benzoxazin-8-yl]-2-[3-(4-methoxyphenyl)-2-methyl-2-propylamino]ethanol] |
